Laboratory results from US10039753B2, “Imidazo[4,5-c]quinoline and imidazo[4,5-c][1,5]naphthyridine derivatives as LRRK2 inhibitors” (Pfizer Inc., priority 2015, dated 2018).
Where a name gives a salt, the structure may show the parent alone.

What was measured:
[1] = biological target: T1, GST-tagged truncated LRRK2 (Homo sapiens, UniProt Q5S007); test: LRRK2 Assay, Format 2 (Lantha Screen), WT; assay type: biochemical; conditions: geometric mean of 2-4 determinations unless otherwise indicated (a: >=5; b: single determination)
T1 construct: GST-tagged truncated LRRK2 from Invitrogen (Cat # PV4874); GST; purchased Invitrogen PV4874
T1 sequence (Q5S007 970-2527 limits assumed): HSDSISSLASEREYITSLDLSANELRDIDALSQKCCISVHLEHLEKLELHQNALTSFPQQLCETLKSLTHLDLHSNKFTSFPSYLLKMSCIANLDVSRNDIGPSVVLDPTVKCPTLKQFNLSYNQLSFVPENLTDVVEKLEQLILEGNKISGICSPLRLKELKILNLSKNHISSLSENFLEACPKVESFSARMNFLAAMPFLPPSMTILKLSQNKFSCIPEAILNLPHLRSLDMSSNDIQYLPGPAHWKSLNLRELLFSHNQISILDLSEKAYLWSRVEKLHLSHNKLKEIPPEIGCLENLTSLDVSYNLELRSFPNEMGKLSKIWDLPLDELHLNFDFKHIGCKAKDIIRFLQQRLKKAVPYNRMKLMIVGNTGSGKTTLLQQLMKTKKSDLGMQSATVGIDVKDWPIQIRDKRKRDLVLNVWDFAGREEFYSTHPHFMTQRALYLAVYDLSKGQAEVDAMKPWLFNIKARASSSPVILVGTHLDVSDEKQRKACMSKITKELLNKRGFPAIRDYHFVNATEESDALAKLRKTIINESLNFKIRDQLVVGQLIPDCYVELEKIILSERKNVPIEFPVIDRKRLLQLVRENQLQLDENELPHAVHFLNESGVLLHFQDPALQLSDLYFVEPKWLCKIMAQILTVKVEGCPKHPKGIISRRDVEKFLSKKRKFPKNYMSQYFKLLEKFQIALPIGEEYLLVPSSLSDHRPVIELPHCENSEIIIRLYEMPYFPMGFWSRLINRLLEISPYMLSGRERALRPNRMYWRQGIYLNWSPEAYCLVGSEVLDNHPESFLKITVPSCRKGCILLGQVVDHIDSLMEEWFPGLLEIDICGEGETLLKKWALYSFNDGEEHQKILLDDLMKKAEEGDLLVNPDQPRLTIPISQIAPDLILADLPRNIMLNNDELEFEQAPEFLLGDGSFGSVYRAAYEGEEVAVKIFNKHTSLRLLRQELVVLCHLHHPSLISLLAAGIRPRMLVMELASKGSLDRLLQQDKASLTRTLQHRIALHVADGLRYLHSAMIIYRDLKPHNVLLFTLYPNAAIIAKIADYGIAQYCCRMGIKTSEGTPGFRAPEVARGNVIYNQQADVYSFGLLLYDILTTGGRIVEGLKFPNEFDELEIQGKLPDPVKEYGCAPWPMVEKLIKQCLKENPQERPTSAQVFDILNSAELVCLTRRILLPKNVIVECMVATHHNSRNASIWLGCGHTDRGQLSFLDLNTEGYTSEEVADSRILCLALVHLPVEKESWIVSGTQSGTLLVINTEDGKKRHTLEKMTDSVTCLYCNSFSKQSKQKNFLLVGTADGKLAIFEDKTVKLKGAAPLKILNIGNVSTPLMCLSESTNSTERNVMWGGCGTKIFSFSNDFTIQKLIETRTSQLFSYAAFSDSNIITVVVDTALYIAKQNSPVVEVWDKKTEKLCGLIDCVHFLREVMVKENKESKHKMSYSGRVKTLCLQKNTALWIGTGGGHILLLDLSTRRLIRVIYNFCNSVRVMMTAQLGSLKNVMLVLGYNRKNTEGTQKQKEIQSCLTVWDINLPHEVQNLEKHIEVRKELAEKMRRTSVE

[2] = biological target: mutant G2019S LRRK2 (Homo sapiens, UniProt Q5S007, G2019S); test: LRRK2 Assay, Format 2 (Lantha Screen), G2019S mutant; assay type: biochemical; set-up: purchased Invitrogen PV4881; conditions: geometric mean of 2-4 determinations unless otherwise indicated (a: >=5; b: single determination); read-out: LRRK2, Format 2 G2019S IC50
Chain of mutant G2019S LRRK2 (Q5S007 970-2527 G2019S limits assumed): as the sequence (Q5S007 970-2527 limits assumed) above, with G1050S counted along it

Structure (SMILES): Cc1cc(Cc2nc3cnc4ccc(C#N)cc4c3n2[C@H]2CCCC[C@H]2O)no1 (racemic) [Example 242, 1-(cis-2-hydroxycyclohexyl)-2-[(5-methyl-1,2-oxazol-3-yl)methyl]-1H-imidazo[4,5-c]quinoline-8-carbonitrile, formate salt]
- IC50 [1]: 0.122 µM
- IC50 [2]: 0.119 µM

Structure (SMILES): C[C@@H]1C[C@H](n2c(Cc3cn(C)cn3)nc3cnc4ccc(C#N)cc4c32)CCO1 [Example 235, 2-[(1-methyl-1H-imidazol-4-yl)methyl]-1-[(2R,4R)-2-methyltetrahydro-2H-pyran-4-yl]-1H-imidazo[4,5-c]quinoline-8-carbonitrile, formate salt]
- IC50 [1]: 0.0106 µM
- IC50 [2]: 0.00943 µM

Structure (SMILES): N#CCc1nc2cnc3ccc(Cl)cc3c2n1[C@@H]1CC[C@H](F)C1 (single isomer, unassigned; ent-1) [Example 204, {8-chloro-1-(cis-3-fluorocyclopentyl)-1H-imidazo[4,5-c]quinolin-2-yl}acetonitrile, ENT-1]
- IC50 [1]: 0.0228 µM
- IC50 [2]: 0.0351 µM

Structure (SMILES): N#Cc1ccc2ncc3nc(Cc4cscn4)n([C@@H]4CC[C@H](F)C4)c3c2c1 (single isomer, unassigned; ent-1) [Example 203, 1-(cis-3-fluorocyclopentyl)-2-(1,3-thiazol-4-ylmethyl)-1H-imidazo[4,5-c]quinoline-8-carbonitrile, ENT-1]
- IC50 [1]: 0.0122 µM
- IC50 [2]: 0.0163 µM

Structure (SMILES): C[C@@H]1C[C@H](n2c(CC#N)nc3cnc4ccc(C#N)cc4c32)CCO1 [Example 117, 2-(cyanomethyl)-1-[(2R,4R)-2-methyltetrahydro-2H-pyran-4-yl]-1H-imidazo[4,5-c]quinoline-8-carbonitrile]
- IC50 [1]: 0.0168 µM
- IC50 [2]: 0.0196 µM

Structure (SMILES): Cc1ccc(Cc2nc3cnc4ccc(Cl)cc4c3n2[C@@H]2CCO[C@H](C)C2)nc1 [Example 100, 8-Chloro-2-[(5-methylpyridin-2-yl)methyl]-1-[(2R,4R)-2-methyltetrahydro-2H-pyran-4-yl]-1H-imidazo[4,5-c]quinoline]
- IC50 [1]: 0.00474 µM
- IC50 [2]: 0.00501 µM

Structure (SMILES): Cc1cc(Cc2nc3cnc4ccc(C#N)cc4c3n2[C@H]2CC[C@@H](F)C2)no1 [Example 241, 1-[(1S,3R)-3-fluorocyclopentyl]-2-[(5-methyl-1,2-oxazol-3-yl)methyl]-1H-imidazo[4,5-c]quinoline-8-carbonitrile, formate salt]
- IC50 [1]: 0.0293 µM
- IC50 [2]: 0.0335 µM

Structure (SMILES): C[C@@H]1C[C@H](n2c(Cc3cncs3)nc3cnc4ccc(C#N)cc4c32)CCO1 [Example 231, 1-[(2R,4R)-2-methyltetrahydro-2H-pyran-4-yl]-2-(1,3-thiazol-5-ylmethyl)-1H-imidazo[4,5-c]quinoline-8-carbonitrile, formate salt]
- IC50 [1]: 0.0249 µM
- IC50 [2]: 0.0266 µM

Structure (SMILES): Cc1cc(Cc2nc3cnc4ccc(C#N)cc4c3n2CC(C)(F)F)no1 [Example 248, 1-(2,2-difluoropropyl)-2-[(5-methyl-1,2-oxazol-3-yl)methyl]-1H-imidazo[4,5-c]quinoline-8-carbonitrile]
- IC50 [1]: 0.015 µM
- IC50 [2]: 0.0177 µM

Structure (SMILES): CCc1cnn(Cc2nc3cnc4ccc(C#N)cc4c3n2CC(C)(F)F)c1 [Example 209, 1-(2,2-difluoropropyl)-2-[(4-ethyl-1H-pyrazol-1-yl)methyl]-1H-imidazo[4,5-c]quinoline-8-carbonitrile]
- IC50 [1]: 0.00802 µM
- IC50 [2]: 0.00993 µM

Structure (SMILES): Cc1cn(Cc2nc3cnc4ccc(C#N)cc4c3n2C2CCC(F)C2)nn1 (single isomer, unassigned; ent-1) [Example C73, 1-(cis-3-fluorocyclopentyl)-2-[(4-methyl-1H-1,2,3-triazol-1-yl)methyl]-1H-imidazo[4,5-c]quinoline-8-carbonitrile, ENT-1]
- IC50 [1]: 0.0204 µM
- IC50 [2]: 0.0261 µM

Structure (SMILES): C[C@@H]1C[C@H](n2c(Cc3ccncn3)nc3cnc4ccc(C(F)(F)F)cc4c32)CCO1 [Example 178, 1-[(2R,4R)-2-methyltetrahydro-2H-pyran-4-yl]-2-(pyrimidin-4-ylmethyl)-8-(trifluoromethyl)-1H-imidazo[4,5-c]quinoline]
- IC50 [1]: 0.00564 µM
- IC50 [2]: 0.00332 µM

Structure (SMILES): CCC(F)(F)Cn1c(Cn2cc(C)nn2)nc2cnc3ccc(Cl)cc3c21 [Example 186, 8-chloro-1-(2,2-difluorobutyl)-2-[(4-methyl-1H-1,2,3-triazol-1-yl)methyl]-1H-imidazo[4,5-c]quinoline]
- IC50 [1]: 0.0225 µM
- IC50 [2]: 0.0164 µM

Structure (SMILES): Cc1cc(Cc2nc3cnc4ccc(C#N)cc4c3n2C2CCCCC2(F)F)no1 (stereo not shown) [Example 151, 1-(2,2-difluorocyclohexyl)-2-[(5-methyl-1,2-oxazol-3-yl)methyl]-1H-imidazo[4,5-c]quinoline-8-carbonitrile, formate salt]
- IC50 [1]: 0.0167 µM
- IC50 [2]: 0.0255 µM

Structure (SMILES): Cc1cc(Cc2nc3cnc4ccc(C#N)cc4c3n2[C@@H]2CCC[C@@H]2F)no1 (single isomer, unassigned; ent-1) [Example 146, 1-(cis-2-fluorocyclopentyl)-2-[(5-methyl-1,2-oxazol-3-yl)methyl]-1H-imidazo[4,5-c]quinoline-8-carbonitrile, ENT-1]
- IC50 [1]: 0.0178 µM
- IC50 [2]: 0.0299 µM

Structure (SMILES): C[C@@H]1C[C@H](n2c(Cn3cnnn3)nc3cnc4ccc(Cl)cc4c32)CCO1 [Example 129, 8-chloro-1-[(2R,4R)-2-methyltetrahydro-2H-pyran-4-yl]-2-(1H-tetrazol-1-ylmethyl)-1H-imidazo[4,5-c]quinoline, formate salt]
- IC50 [1]: 0.00364 µM
- IC50 [2]: 0.00417 µM

Structure (SMILES): C[C@@H]1C[C@H](n2c(Cc3ccncn3)nc3cnc4ccc(C#N)cc4c32)CCO1 [Example 222, 1-[(2R,4R)-2-methyltetrahydro-2H-pyran-4-yl]-2-(pyrimidin-4-ylmethyl)-1H-imidazo[4,5-c]quinoline-8-carbonitrile]
- IC50 [1]: 0.00908 µM
- IC50 [2]: 0.00859 µM

Structure (SMILES): C[C@@H]1C[C@H](n2c(Cn3cnnn3)nc3cnc4ccc(C#N)cc4c32)CCO1 [Example 124, 1-[(2R,4R)-2-methyltetrahydro-2H-pyran-4-yl]-2-(1H-tetrazol-1-ylmethyl)-1H-imidazo[4,5-c]quinoline-8-carbonitrile, formate salt]
- IC50 [1]: 0.00622 µM
- IC50 [2]: 0.00533 µM

Structure (SMILES): C[C@@H]1C[C@H](n2c(Cc3ccc4nnnn4n3)nc3cnc4ccc(Cl)cc4c32)CCO1 [Example 165, 8-chloro-1-[(2R,4R)-2-methyltetrahydro-2H-pyran-4-yl]-2-(tetrazolo[1,5-b]pyridazin-6-ylmethyl)-1H-imidazo[4,5-c]quinoline]
- IC50 [1]: 0.00675 µM
- IC50 [2]: 0.00744 µM

Structure (SMILES): C[C@@H]1C[C@H](n2c(Cc3cn4ccccc4n3)nc3cnc4ccc(Cl)cc4c32)CCO1 [Example 167, 8-chloro-2-(imidazo[1,2-a]pyridin-2-ylmethyl)-1-[(2R,4R)-2-methyltetrahydro-2H-pyran-4-yl]-1H-imidazo[4,5-c]quinoline, trifluoroacetate salt]
- IC50 [1]: 0.00826 µM
- IC50 [2]: 0.00843 µM

Structure (SMILES): C[C@@H]1C[C@H](n2c(C(=O)c3ccon3)nc3cnc4ccc(Cl)cc4c32)CCO1 [Example 174, {8-chloro-1-[(2R,4R)-2-methyltetrahydro-2H-pyran-4-yl]-1H-imidazo[4,5-c]quinolin-2-yl}(1,2-oxazol-3-yl)methanone]
- IC50 [1]: 0.0168 µM
- IC50 [2]: 0.0196 µM

Structure (SMILES): Cc1nc(Cc2nc3cnc4ccc(C#N)cc4c3n2[C@@H]2CCO[C@H](C)C2)c(C2CC2)o1 [Example 155, 2-[(5-cyclopropyl-2-methyl-1,3-oxazol-4-yl)methyl]-1-[(2R,4R)-2-methyltetrahydro-2H-pyran-4-yl]-1H-imidazo[4,5-c]quinoline-8-carbonitrile, formate salt]
- IC50 [1]: 0.0118 µM
- IC50 [2]: 0.00899 µM

Structure (SMILES): CCC(F)(F)Cn1c(Cc2cnccn2)nc2cnc3ccc(Cl)cc3c21 [Example 184, 8-chloro-1-(2,2-difluorobutyl)-2-(pyrazin-2-ylmethyl)-1H-imidazo[4,5-c]quinoline]
- IC50 [1]: 0.0343 µM
- IC50 [2]: 0.0228 µM

Structure (SMILES): C[C@@H]1C[C@H](n2c(Cc3cnco3)nc3cnc4ccc(Cl)cc4c32)CCO1 [Example 127, 8-chloro-1-[(2R,4R)-2-methyltetrahydro-2H-pyran-4-yl]-2-(1,3-oxazol-5-ylmethyl)-1H-imidazo[4,5-c]quinoline, formate salt]
- IC50 [1]: 0.00702 µM
- IC50 [2]: 0.00801 µM

Structure (SMILES): Cc1cc(Cc2nc3cnc4ccc(C#N)cc4c3n2[C@H]2CC[C@H](O)CC2)no1 [Example 240, 1-(trans-4-hydroxycyclohexyl)-2-[(5-methyl-1,2-oxazol-3-yl)methyl]-1H-imidazo[4,5-c]quinoline-8-carbonitrile, formate salt]
- IC50 [1]: 0.0518 µM
- IC50 [2]: 0.0357 µM

Structure (SMILES): C[C@@H]1C[C@H](n2c(Cn3cncn3)nc3cnc4ccc(C#N)cc4c32)CCO1 [Example 120, 1-[(2R,4R)-2-methyltetrahydro-2H-pyran-4-yl]-2-(1H-1,2,4-triazol-1-ylmethyl)-1H-imidazo[4,5-c]quinoline-8-carbonitrile, formate salt]
- IC50 [1]: 0.00574 µM
- IC50 [2]: 0.00507 µM

Structure (SMILES): C[C@@H]1C[C@H](n2c(Cc3noc4ccccc34)nc3cnc4ccc(C#N)cc4c32)CCO1 [Example 154, 2-(1,2-benzoxazol-3-ylmethyl)-1-[(2R,4R)-2-methyltetrahydro-2H-pyran-4-yl]-1H-imidazo[4,5-c]quinoline-8-carbonitrile, formate salt]
- IC50 [1]: 0.00401 µM
- IC50 [2]: 0.00371 µM

Structure (SMILES): Cc1nc(Cc2nc3cnc4ccc(C#N)cc4c3n2[C@@H]2CCO[C@H](C)C2)no1 [Example 123, 2-[(5-methyl-1,2,4-oxadiazol-3-yl)methyl]-1-[(2R,4R)-2-methyltetrahydro-2H-pyran-4-yl]-1H-imidazo[4,5-c]quinoline-8-carbonitrile]
- IC50 [1]: 0.00925 µM
- IC50 [2]: 0.00891 µM

Structure (SMILES): Cc1cnn(Cc2nc3cnc4ccc(C#N)cc4c3n2[C@@H]2CCO[C@H](C)C2)c1 [Example 133, 2-[(4-methyl-1H-pyrazol-1-yl)methyl]-1-[(2R,4R)-2-methyltetrahydro-2H-pyran-4-yl]-1H-imidazo[4,5-c]quinoline-8-carbonitrile]
- IC50 [1]: 0.00768 µM
- IC50 [2]: 0.00716 µM
